Assay results reported in patent US20240317777A1, “NOVEL MACROCYCLIC AMINOPYRAZOLE COMPOUNDS AS CDK2 INHIBITORS” (Accutar Biotechnology Inc., priority 2023, published 2024).
pIC50: −log10 of the molar value. Where two headings read alike, the source gives them in different places.

What was measured:
CDK2-CYCLIN E1 = CDK2-CYCLIN E1 (Homo sapiens, UniProt P24941); test: CDK protein kinase inhibition by ADP-Glo assay, CDK2-CYCLIN E1; type: biochemical; conditions: ADP-Glo, 1000 μM ATP, read-out: CDK2-CYCLINE, IC50
Procedure, shortened: (§1)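 Kinase/cyclin + peptide substrate + cpd + ATP (1000 μM)/MgCl2 (5 mM), HEPES pH 7.5, 22° C; quench, ADP-Glo reagent 45 min RT, detection reagent 10 min, luminescence.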

[1] = system: Phospho-Rb (Ser807/811) in OVCAR3 cells; test: Phospho-Rb expression inhibition in OVCAR3 cells quantified by In Cell Western; type: cell-based; conditions: Homo sapiens, OVCAR-3, 24 hours, read-out: OVCAR-3 pRb IC50
Procedure, shortened: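 In-cell western: after 24 h compound exposure at 37° C, fixed OVCAR3 cells co-stained for pRb Ser807/811 (800 nm channel) and total Rb (680 nm channel), imaged by LI-COR Odyssey.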

CDK1-CYCLIN B = CDK1-CYCLIN B (Homo sapiens, UniProt P06493); test: CDK protein kinase inhibition by ADP-Glo assay, CDK1-CYCLIN B; type: biochemical; conditions: for pIC50: ADP-Glo, 1000 μM ATP, read-out: CDK1-CYCLINB, IC50; for CDK2 Fold selectivity, CDK1: CDK2 versus CDK1
CDK1-CYCLIN B, sequence (P06493 whole entry): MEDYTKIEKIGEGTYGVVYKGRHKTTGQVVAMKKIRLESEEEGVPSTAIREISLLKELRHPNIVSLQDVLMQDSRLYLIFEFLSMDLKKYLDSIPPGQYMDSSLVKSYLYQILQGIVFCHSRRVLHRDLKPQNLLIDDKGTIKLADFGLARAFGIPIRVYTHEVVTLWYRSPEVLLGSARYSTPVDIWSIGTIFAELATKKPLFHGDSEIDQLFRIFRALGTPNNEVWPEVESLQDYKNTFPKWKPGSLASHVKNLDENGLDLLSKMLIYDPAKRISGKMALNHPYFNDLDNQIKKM
CDK1-CYCLIN B, sequence (P14635 whole entry partner): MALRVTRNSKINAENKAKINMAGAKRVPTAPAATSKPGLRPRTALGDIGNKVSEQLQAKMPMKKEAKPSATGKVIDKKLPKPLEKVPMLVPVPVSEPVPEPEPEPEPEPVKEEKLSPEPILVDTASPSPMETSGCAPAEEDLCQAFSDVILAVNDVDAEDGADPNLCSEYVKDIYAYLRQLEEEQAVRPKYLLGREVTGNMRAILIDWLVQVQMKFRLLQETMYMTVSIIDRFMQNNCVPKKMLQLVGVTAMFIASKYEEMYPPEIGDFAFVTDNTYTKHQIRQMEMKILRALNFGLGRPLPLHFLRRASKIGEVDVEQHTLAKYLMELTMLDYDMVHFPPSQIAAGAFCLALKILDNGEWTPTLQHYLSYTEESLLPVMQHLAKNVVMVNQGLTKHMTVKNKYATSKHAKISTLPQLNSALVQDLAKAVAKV
Procedure, shortened: as §1

CDK4-CYCLIN D1 = CDK4-CYCLIN D1 (Homo sapiens, UniProt P11802); test: CDK protein kinase inhibition by ADP-Glo assay, CDK4-CYCLIN D1; type: biochemical; conditions: for pIC50: ADP-Glo, 1000 μM ATP, read-out: CDK4-CYCLIND1, IC50; for CDK2 Fold selectivity, CDK4: CDK2 versus CDK4
CDK4-CYCLIN D1, sequence (P11802 whole entry): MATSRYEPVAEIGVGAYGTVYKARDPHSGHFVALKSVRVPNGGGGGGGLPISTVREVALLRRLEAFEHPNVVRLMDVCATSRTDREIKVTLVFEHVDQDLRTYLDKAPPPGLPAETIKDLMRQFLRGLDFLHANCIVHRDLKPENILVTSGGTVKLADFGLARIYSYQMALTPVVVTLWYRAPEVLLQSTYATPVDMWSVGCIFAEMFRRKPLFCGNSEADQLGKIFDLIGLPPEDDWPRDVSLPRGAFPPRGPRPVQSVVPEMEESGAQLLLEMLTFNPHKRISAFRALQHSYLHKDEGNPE
CDK4-CYCLIN D1, sequence (P24385 whole entry partner): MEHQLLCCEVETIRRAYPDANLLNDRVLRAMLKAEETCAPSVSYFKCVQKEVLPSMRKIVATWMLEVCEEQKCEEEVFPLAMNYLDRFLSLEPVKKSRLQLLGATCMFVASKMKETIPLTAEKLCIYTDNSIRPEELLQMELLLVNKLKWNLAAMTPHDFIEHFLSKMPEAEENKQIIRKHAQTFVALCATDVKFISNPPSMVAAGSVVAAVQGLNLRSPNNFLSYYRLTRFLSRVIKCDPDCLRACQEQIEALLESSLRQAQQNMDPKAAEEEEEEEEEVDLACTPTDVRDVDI
Procedure, shortened: as §1

[2] = system: CCNE1-amplified OVCAR3 cells; test: Cell growth inhibition of CCNE1-amplified OVCAR3 cells (CellTiter-Glo); type: cell-based; conditions: Homo sapiens, OVCAR-3, 144 h, 6 days
Procedure, shortened: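 Growth read-out was CellTiter-Glo luminescence, taken after 10 min at room temperature at the end of a 6-day compound exposure at 37 °C. Compounds were diluted from DMSO stocks across various concentrations.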

CDK6-CYCLIN D3 = CDK6-CYCLIN D3 (Homo sapiens, UniProt Q00534); test: CDK protein kinase inhibition by ADP-Glo assay, CDK6-CYCLIN D3; type: biochemical; conditions: for pIC50: ADP-Glo, 1000 μM ATP, read-out: CDK6-CYCLIND3, IC50; for CDK2 Fold selectivity, CDK6: CDK2 versus CDK6
CDK6-CYCLIN D3, sequence (Q00534 whole entry): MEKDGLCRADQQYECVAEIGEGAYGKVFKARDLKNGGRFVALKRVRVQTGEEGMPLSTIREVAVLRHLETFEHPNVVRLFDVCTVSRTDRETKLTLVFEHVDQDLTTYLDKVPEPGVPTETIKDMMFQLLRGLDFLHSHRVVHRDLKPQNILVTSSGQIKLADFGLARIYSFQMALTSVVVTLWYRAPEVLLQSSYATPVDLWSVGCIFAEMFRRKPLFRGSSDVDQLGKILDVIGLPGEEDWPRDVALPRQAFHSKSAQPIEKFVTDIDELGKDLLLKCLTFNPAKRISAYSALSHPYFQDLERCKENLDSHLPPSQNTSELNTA
CDK6-CYCLIN D3, sequence (P30281 whole entry partner): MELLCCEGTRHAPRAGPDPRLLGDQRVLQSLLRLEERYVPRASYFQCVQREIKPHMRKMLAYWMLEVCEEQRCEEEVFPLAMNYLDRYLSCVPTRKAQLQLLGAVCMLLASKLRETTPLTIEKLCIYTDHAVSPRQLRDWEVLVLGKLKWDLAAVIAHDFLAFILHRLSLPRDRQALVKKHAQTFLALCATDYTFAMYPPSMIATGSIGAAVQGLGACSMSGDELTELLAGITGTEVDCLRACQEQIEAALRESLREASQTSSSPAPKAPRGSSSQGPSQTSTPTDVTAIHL
Procedure, shortened: as §1

CCNE1-normal SKOV3 cells = test: Cell growth inhibition of CCNE1-normal SKOV3 cells (CellTiter-Glo); type: cell-based; conditions: Homo sapiens, SK-OV-3, 144 h, 6 days
Procedure, shortened: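 Growth was measured by CellTiter-Glo luminescence after 6 days' compound exposure at 37 °C. Cells were plated one day before dosing at 1000 per well in medium with 10% FBS, and compounds were diluted from DMSO stocks.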

CDK9-CYCLIN T1 = CDK9-CYCLIN T1 (Homo sapiens, UniProt P50750); test: CDK protein kinase inhibition by ADP-Glo assay, CDK9-CYCLIN T1; type: biochemical; conditions: for pIC50: ADP-Glo, 1000 μM ATP; for CDK2 Fold selectivity, CDK9: CDK2 versus CDK9
CDK9-CYCLIN T1, sequence (P50750 whole entry): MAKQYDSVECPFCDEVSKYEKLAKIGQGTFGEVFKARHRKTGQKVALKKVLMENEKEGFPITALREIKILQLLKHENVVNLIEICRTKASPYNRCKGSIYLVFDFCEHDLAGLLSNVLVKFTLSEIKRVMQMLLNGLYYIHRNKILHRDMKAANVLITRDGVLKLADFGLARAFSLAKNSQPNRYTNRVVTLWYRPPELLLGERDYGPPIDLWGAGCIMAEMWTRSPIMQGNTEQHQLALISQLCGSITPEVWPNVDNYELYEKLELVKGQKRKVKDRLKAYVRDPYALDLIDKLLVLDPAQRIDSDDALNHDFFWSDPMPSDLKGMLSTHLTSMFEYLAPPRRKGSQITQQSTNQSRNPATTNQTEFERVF
CDK9-CYCLIN T1, sequence (O60563 whole entry partner): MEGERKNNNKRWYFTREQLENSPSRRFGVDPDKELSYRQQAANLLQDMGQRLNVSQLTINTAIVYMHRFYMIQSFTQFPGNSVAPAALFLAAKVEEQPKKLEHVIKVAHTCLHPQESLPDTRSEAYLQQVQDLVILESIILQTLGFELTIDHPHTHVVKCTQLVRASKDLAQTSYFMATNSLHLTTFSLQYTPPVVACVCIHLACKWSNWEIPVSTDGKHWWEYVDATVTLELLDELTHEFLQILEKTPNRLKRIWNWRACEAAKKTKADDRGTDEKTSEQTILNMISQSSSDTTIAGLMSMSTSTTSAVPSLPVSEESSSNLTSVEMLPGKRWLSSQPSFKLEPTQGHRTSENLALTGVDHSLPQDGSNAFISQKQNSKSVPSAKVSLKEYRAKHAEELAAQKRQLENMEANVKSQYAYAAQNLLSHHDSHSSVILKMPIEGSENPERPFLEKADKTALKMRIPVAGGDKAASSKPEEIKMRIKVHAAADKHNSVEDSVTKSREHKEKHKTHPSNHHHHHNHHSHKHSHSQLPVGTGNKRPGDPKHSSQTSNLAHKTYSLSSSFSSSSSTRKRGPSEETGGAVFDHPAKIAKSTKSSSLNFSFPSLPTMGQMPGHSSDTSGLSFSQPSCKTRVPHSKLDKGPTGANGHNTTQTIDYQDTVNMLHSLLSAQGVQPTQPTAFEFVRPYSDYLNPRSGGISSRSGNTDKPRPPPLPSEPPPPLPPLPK
Procedure, shortened: as §1

[3] = Table 25, read-out: CDK9-CYCLINT1, IC50
[4] = Table 21, read-out: CDK9-CYCLINT1, IC50

| Compound | pIC50 (CDK2-CYCLIN E1; Table 25) | pIC50 [1] | pIC50 (CDK1-CYCLIN B; Table 25) | CDK2 Fold selectivity, CDK1 (CDK1-CYCLIN B; Table 26) | pIC50 (CDK4-CYCLIN D1; Table 25) | CDK2 Fold selectivity, CDK4 (CDK4-CYCLIN D1; Table 26) | pIC50 [2] | pIC50 (CDK6-CYCLIN D3; Table 25) | CDK2 Fold selectivity, CDK6 (CDK6-CYCLIN D3; Table 26) | pIC50 (CCNE1-normal SKOV3 cells) | pIC50 (CDK9-CYCLIN T1; [3]) | CDK2 Fold selectivity, CDK9 (CDK9-CYCLIN T1; Table 26) | other results |
| --- | --- | --- | --- | --- | --- | --- | --- | --- | --- | --- | --- | --- | --- |
| C[C@H]1CCCNC(=O)O[C@@H]2CC[C@@H](C2)c2cc([nH]n2)Nc2cnnc(c2)O1 [Compound 155, (1^1S,1^3R,6S,Z)-6-methyl-2^1H-5,12-dioxa-3,10-diaza-4(5,3)-pyridazina-2(3,5)-pyrazola-1(1,3)-cyclopentanacyclododecaphan-11-one] | ≥ 8.00 | 7.30 to 8.00 | 7.30 to 8.00 | E (E, <20) | 6.30 to 7.00 | D (D, >20 and ≤50) | 6.60 to 7.30 | 6.30 to 7.00 | D (D, >20 and ≤50) | < 5.90 | < 6.30 | B (B, >100 and ≤500) | – |
| C[C@H]1CCCNC(=O)O[C@@H]2CC[C@@H](C2)c2cc([nH]n2)Nc2cccc(c2)O1 [Compound 157, (1^1S,1^3R,6S,Z)-6-methyl-2^1H-5,12-dioxa-3,10-diaza-2(3,5)-pyrazola-4(1,3)-benzena-1(1,3)-cyclopentanacyclododecaphan-11-one] | – | 7.30 to 8.00 | – | – | – | – | 7.30 to 8.00 | – | – | 5.90 to 6.60 | – | – | pIC50 (CDK2-CYCLIN E1; Table 21): ≥ 8.00; pIC50 (CDK1-CYCLIN B; Table 21): 7.00 to 7.30; CDK2 Fold selectivity, CDK1 (CDK1-CYCLIN B; Table 22): E (E, <20); pIC50 (CDK4-CYCLIN D1; Table 21): 6.30 to 7.00; CDK2 Fold selectivity, CDK4 (CDK4-CYCLIN D1; Table 22): D (D, >20 and ≤50); pIC50 (CDK6-CYCLIN D3; Table 21): 6.30 to 7.00; CDK2 Fold selectivity, CDK6 (CDK6-CYCLIN D3; Table 22): D (D, >20 and ≤50); pIC50 (CDK9-CYCLIN T1; [4]): 6.30 to 7.00; CDK2 Fold selectivity, CDK9 (CDK9-CYCLIN T1; Table 22): C (C, >50 and ≤100) |
| O=C1NCCCO[C@@H](C(F)(F)F)c2cc(ccn2)Nc2cc(n[nH]2)[C@H]2CC[C@H](C2)O1 [Compound 161, (1^1S,1^3R,5R,Z)-5-(trifluoromethyl)-2^1H-6,12-dioxa-3,10-diaza-4(4,2)-pyridina-2(3,5)-pyrazola-1(1,3)-cyclopentanacyclododecaphan-11-one] | – | ≥ 8.70 | – | – | – | – | ≥ 8.70 | – | – | 6.60 to 7.30 | – | – | pIC50 (CDK2-CYCLIN E1; Table 21): ≥ 8.00; pIC50 (CDK1-CYCLIN B; Table 21): ≥ 8.00; CDK2 Fold selectivity, CDK1 (CDK1-CYCLIN B; Table 22): E (E, <20); pIC50 (CDK4-CYCLIN D1; Table 21): 7.30 to 8.00; CDK2 Fold selectivity, CDK4 (CDK4-CYCLIN D1; Table 22): E (E, <20); pIC50 (CDK6-CYCLIN D3; Table 21): 7.30 to 8.00; CDK2 Fold selectivity, CDK6 (CDK6-CYCLIN D3; Table 22): E (E, <20); pIC50 (CDK9-CYCLIN T1; [4]): 7.30 to 8.00; CDK2 Fold selectivity, CDK9 (CDK9-CYCLIN T1; Table 22): E (E, <20) |
| C[C@H]1CCCC(F)(F)c2cc(ccn2)Nc2cc(n[nH]2)[C@H]2CC[C@H](C2)OC(=O)N1 [Compound 166, (1^1S,1^3R,9S,Z)-5,5-difluoro-9-methyl-2^1H-12-oxa-3,10-diaza-4(4,2)-pyridina-2(3,5)-pyrazola-1(1,3)-cyclopentanacyclododecaphan-11-one] | ≥ 8.00 | 8.00 to 8.70 | 7.30 to 8.00 | E (E, <20) | 7.00 to 7.30 | C (C, >50 and ≤100) | 7.30 to 8.00 | 7.30 to 8.00 | D (D, >20 and ≤50) | 5.90 to 6.60 | 7.30 to 8.00 | D (D, >20 and ≤50) | pIC50 (CDK2-CYCLIN E1; Table 31): ≥ 8.00; pIC50 (CDK1-CYCLIN B; Table 31): 7.30 to 8.00; CDK2 Fold selectivity, CDK1 (CDK1-CYCLIN B; Table 32): E (E, <20); pIC50 (CDK4-CYCLIN D1; Table 31): 6.30 to 7.00; CDK2 Fold selectivity, CDK4 (CDK4-CYCLIN D1; Table 32): D (D, >20 and ≤50); pIC50 (CDK6-CYCLIN D3; Table 31): 6.30 to 7.00; CDK2 Fold selectivity, CDK6 (CDK6-CYCLIN D3; Table 32): D (D, >20 and ≤50); pIC50 (CDK9-CYCLIN T1; Table 31, read-out: CDK9-CYCLINT1, IC50): 7.30 to 8.00; CDK2 Fold selectivity, CDK9 (CDK9-CYCLIN T1; Table 32): E (E, <20) |
| O=C1NC2CC(/C=C/c3cc(ccn3)Nc3cc(n[nH]3)[C@H]3CC[C@H](C3)O1)C2 [Compound 172, (1^1S,1^3R,2^4Z,7^1R,7^3S,5E)-2^1H-10-oxa-3,8-diaza-4(4,2)-pyridina-2(3,5)-pyrazola-1(1,3)-cyclopentana-7(1,3)-cyclobutanacyclodecaphan-5-en-9-one] | ≥ 8.00 | ≥ 8.70 | ≥ 8.00 | E (E, <20) | ≥ 8.00 | E (E, <20) | 8.00 to 8.70 | 7.30 to 8.00 | E (E, <20) | 7.30 to 8.00 | ≥ 8.00 | E (E, <20) | – |
| [2H]C1([2H])CC[C@H](C)NC(=O)O[C@@H]2CC[C@@H](C2)c2cc([nH]n2)Nc2ccnc(c2)O1 [Compound 173, (1^1S,1^3R,9S,Z)-9-methyl-2^1H-5,12-dioxa-3,10-diaza-4(4,2)-pyridina-2(3,5)-pyrazola-1(1,3)-cyclopentanacyclododecaphan-11-one-6,6-d2] | – | 7.30 to 8.00 | – | – | – | – | 6.60 to 7.30 | – | – | < 5.90 | – | – | pIC50 (CDK2-CYCLIN E1; Table 27): 7.30 to 8.00; pIC50 (CDK1-CYCLIN B; Table 27): 6.30 to 7.00; CDK2 Fold selectivity, CDK1 (CDK1-CYCLIN B; Table 28): E (E, <20); pIC50 (CDK4-CYCLIN D1; Table 27): 6.30 to 7.00; CDK2 Fold selectivity, CDK4 (CDK4-CYCLIN D1; Table 28): D (D, >20 and ≤50); pIC50 (CDK6-CYCLIN D3; Table 27): < 6.30; CDK2 Fold selectivity, CDK6 (CDK6-CYCLIN D3; Table 28): D (D, >20 and ≤50); pIC50 (CDK9-CYCLIN T1; Table 27, read-out: CDK9-CYCLINT1 IC50): < 6.30; CDK2 Fold selectivity, CDK9 (CDK9-CYCLIN T1; Table 28): D (D, >20 and ≤50) |
| C[C@@H]1NC(=O)O[C@@H]2CC[C@@H](C2)c2cc([nH]n2)Nc2ccnc(c2)OCCC1(F)F [Compound 181, (1^1S,1^3R,9S,Z)-8,8-difluoro-9-methyl-2^1H-5,12-dioxa-3,10-diaza-4(4,2)-pyridina-2(3,5)-pyrazola-1(1,3)-cyclopentanacyclododecaphan-11-one] | – | 7.30 to 8.00 | – | – | – | – | 7.30 to 8.00 | – | – | 5.90 to 6.60 | – | – | pIC50 (CDK2-CYCLIN E1; Table 29): ≥ 8.00; pIC50 (CDK1-CYCLIN B; Table 29): 6.30 to 7.00; CDK2 Fold selectivity, CDK1 (CDK1-CYCLIN B; Table 30): D (D, >20 and ≤50); pIC50 (CDK4-CYCLIN D1; Table 29): < 6.30; CDK2 Fold selectivity, CDK4 (CDK4-CYCLIN D1; Table 30): C (C, >50 and ≤100); pIC50 (CDK6-CYCLIN D3; Table 29): < 6.30; CDK2 Fold selectivity, CDK6 (CDK6-CYCLIN D3; Table 30): C (C, >50 and ≤100); pIC50 (CDK9-CYCLIN T1; Table 29, read-out: CDK9-CYCLINT1, IC50): 6.30 to 7.00; CDK2 Fold selectivity, CDK9 (CDK9-CYCLIN T1; Table 30): D (D, >20 and ≤50) |
